Values of other authors, collected in US20040063167A1, “Minimising calibration problems of in vivo glucose sensors” (priority 2002, published 2004).

Test system: animal, plant and bacterial cells in culture

Structure (SMILES): OO [H2O2, Hydrogen peroxide]
- levels of H2O2 that seem to have limited cytotoxicity (many cell types, "at or below about"): 20 to 50 µM
- levels of H2O2 described as being cytotoxic (wide range of animal, plant and bacterial cells in culture, "usually"): ≥ 50 µM
